Assays:
CYP2C19 [1] = molecular target: T1, CYP2C19 (Homo sapiens, UniProt P33261); assay: in vitro; details: microsomes
CYP2C19 [2] = molecular target: T1, CYP2C19; assay: S-mephenytoin […]'-hydroxylation inhibition in individual human liver microsomes at […] fluvoxamine, LC-MS/MS; assay type: cell-based; design: human liver microsomes

T1 sequence (P33261 whole entry): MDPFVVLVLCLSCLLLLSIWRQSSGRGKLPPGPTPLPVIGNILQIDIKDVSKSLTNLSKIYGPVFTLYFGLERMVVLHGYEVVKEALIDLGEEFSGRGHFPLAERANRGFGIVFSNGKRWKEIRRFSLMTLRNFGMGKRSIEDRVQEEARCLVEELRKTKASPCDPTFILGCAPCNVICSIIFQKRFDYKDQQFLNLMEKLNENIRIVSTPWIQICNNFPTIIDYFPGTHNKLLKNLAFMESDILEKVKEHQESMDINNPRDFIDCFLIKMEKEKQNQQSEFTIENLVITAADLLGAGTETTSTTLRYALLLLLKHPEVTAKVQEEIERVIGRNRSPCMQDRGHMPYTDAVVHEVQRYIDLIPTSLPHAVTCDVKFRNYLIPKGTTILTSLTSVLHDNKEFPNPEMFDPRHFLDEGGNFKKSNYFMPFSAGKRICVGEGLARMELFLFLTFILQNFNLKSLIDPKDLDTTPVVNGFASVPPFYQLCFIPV

Row | KI (inactivation) (CYP2C19 [1]) | SMILES | inhibition at 1 µM (CYP2C19 [2])
1 | 4.47 ± 1.8 µM | COc1ccc2[nH]c([S+]([O-])Cc3ncc(C)c(OC)c3C)nc2c1 (centres unmarked) [omeprazole] | –
2 | – | COCCCC/C(=N\OCCN)c1ccc(C(F)(F)F)cc1 [fluvoxamine] | 85%
